In the kinase profiling compilation of Christmann-Franck et al. (2016):
Several values for one entry are separate records, joined by “and”; a condition that tells them apart may be missing. Equal entries are not always repeated. Each block holds one molecule with its values, some of them ahead of it.

Experiments:
Assay in all cases: radiometric filter-binding kinase assay, Kinase HotSpot
Conditions in all cases: compound 0.5 µM; ATP 10 µM
[1] = target: MAPK9 (human) (UniProt P45984)
[2] = target: TNK2 (human) (UniProt Q07912)
[3] = target: RPS6KA1 KD1 KD2 (human) (UniProt Q15418)
[4] = target: NEK6 (human) (UniProt Q9HC98)
[5] = target: CDK3 CCNE1 (human) (UniProt Q00526+P24864)
[6] = target: CLK1 (human) (UniProt P49759)
[7] = target: CHUK (human) (UniProt O15111)
[8] = target: HCK (human) (UniProt P08631)
[9] = target: CDK6 CCND1 (human) (UniProt Q00534+P24385)
[10] = target: FES (human) (UniProt P07332)
[11] = target: MATK (human) (UniProt P42679)
[12] = target: LTK (human) (UniProt P29376)
[13] = target: ULK2 (human) (UniProt Q8IYT8)
[14] = target: MYLK (human) (UniProt Q15746)
[15] = target: FGR (human) (UniProt P09769)
[16] = target: MELK (human) (UniProt Q14680)
[17] = target: PKN1 (human) (UniProt Q16512)
[18] = target: FYN (human) (UniProt P06241)
[19] = target: PTK2 (human) (UniProt Q05397)
[20] = target: EPHA3 (human) (UniProt P29320)
[21] = target: RPS6KB1 (human) (UniProt P23443)
[22] = target: CHEK1 (human) (UniProt O14757)
[23] = target: CLK2 (human) (UniProt P49760)
[24] = target: ACVR1 (human) (UniProt Q04771)
[25] = target: PRKG1 (human) (UniProt Q13976)
[26] = target: CAMK2D (human) (UniProt Q13557)
[27] = target: PRKCB2 (human) (UniProt P05771)
[28] = target: CSNK1G2 (human) (UniProt P78368)
[29] = target: RPS6KA6 KD1 KD2 (human) (UniProt Q9UK32)
[30] = target: CDK4 CCND1 (human) (UniProt P24385+P11802)
[31] = target: MAPK10 (human) (UniProt P53779)
[32] = target: BLK (human) (UniProt P51451)
[33] = target: WNK2 (human) (UniProt Q9Y3S1)
[34] = target: HIPK4 (human) (UniProt Q8NE63)
[35] = target: TEC (human) (UniProt P42680)
[36] = target: PDGFRB (human) (UniProt P09619)
[37] = target: MAP4K4 (human) (UniProt O95819)
[38] = target: NLK (human) (UniProt Q9UBE8)
[39] = target: MAP3K9 (human) (UniProt P80192)
[40] = target: LCK (human) (UniProt P06239)
[41] = target: MERTK (human) (UniProt Q12866)
[42] = target: PRKCA (human) (UniProt P17252)

Chain of CHEK1 (human) (O14757 whole entry, looked up): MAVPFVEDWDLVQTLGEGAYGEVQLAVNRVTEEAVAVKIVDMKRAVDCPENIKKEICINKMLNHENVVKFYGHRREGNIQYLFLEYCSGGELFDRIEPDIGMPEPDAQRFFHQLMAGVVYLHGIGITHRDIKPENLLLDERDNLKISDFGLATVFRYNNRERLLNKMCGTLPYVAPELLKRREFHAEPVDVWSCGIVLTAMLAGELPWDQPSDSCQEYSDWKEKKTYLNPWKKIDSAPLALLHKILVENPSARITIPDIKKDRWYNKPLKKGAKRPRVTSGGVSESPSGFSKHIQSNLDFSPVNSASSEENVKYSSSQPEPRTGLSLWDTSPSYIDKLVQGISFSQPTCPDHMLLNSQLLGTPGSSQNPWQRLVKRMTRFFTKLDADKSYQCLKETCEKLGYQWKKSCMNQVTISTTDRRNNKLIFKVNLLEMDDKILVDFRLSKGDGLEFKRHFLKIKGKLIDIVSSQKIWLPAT
Chain of TNK2 (human) (Q07912 whole entry, looked up): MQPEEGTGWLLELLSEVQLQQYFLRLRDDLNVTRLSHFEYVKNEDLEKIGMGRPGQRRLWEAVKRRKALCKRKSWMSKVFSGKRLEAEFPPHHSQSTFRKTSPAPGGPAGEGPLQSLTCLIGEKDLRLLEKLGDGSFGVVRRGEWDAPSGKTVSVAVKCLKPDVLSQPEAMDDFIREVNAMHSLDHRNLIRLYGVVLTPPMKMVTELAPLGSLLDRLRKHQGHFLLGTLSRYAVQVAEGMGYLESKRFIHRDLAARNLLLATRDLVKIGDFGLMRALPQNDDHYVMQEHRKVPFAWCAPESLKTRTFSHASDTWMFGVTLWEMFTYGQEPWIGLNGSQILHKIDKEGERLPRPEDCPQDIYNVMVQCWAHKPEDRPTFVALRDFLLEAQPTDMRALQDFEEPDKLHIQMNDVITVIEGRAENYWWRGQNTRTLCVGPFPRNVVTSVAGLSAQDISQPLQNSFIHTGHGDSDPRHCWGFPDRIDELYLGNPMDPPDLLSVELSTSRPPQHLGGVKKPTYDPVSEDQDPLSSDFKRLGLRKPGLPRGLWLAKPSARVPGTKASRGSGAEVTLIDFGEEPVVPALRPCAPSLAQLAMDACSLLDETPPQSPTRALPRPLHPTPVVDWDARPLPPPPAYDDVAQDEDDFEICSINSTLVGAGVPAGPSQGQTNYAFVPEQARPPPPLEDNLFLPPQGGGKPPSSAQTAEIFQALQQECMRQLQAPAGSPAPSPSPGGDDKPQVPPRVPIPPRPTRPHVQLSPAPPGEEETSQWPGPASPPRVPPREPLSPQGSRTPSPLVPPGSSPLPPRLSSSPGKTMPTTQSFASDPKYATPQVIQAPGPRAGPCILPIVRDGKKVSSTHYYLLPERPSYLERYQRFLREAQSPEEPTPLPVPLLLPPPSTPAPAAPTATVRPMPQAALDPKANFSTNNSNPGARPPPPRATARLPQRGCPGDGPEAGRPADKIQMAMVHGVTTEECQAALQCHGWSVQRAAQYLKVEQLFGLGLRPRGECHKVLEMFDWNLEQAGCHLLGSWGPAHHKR
Chain of LTK (human) (P29376 whole entry, looked up): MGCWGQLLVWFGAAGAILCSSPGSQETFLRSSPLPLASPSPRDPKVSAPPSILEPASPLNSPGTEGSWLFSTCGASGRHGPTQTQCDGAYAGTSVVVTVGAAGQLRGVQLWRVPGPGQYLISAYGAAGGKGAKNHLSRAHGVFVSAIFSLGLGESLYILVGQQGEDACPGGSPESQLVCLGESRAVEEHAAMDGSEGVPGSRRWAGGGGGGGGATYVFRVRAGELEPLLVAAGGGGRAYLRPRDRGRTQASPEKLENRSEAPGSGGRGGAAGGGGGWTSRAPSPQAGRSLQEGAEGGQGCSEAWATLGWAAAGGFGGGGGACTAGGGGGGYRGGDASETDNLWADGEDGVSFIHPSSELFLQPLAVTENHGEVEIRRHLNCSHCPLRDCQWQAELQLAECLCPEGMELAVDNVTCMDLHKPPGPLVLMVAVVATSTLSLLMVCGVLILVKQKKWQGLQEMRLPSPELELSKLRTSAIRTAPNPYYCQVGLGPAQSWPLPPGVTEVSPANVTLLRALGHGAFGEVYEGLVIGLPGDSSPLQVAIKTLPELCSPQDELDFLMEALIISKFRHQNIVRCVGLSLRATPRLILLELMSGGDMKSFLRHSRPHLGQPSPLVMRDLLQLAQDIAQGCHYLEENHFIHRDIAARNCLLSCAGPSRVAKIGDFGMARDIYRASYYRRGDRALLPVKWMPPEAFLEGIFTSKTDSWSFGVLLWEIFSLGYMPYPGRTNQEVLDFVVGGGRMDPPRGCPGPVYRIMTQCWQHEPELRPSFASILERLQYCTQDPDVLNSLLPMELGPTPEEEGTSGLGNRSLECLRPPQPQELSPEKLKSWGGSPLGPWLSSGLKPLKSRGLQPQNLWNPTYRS
Chain of MYLK (human) (Q15746 whole entry, looked up): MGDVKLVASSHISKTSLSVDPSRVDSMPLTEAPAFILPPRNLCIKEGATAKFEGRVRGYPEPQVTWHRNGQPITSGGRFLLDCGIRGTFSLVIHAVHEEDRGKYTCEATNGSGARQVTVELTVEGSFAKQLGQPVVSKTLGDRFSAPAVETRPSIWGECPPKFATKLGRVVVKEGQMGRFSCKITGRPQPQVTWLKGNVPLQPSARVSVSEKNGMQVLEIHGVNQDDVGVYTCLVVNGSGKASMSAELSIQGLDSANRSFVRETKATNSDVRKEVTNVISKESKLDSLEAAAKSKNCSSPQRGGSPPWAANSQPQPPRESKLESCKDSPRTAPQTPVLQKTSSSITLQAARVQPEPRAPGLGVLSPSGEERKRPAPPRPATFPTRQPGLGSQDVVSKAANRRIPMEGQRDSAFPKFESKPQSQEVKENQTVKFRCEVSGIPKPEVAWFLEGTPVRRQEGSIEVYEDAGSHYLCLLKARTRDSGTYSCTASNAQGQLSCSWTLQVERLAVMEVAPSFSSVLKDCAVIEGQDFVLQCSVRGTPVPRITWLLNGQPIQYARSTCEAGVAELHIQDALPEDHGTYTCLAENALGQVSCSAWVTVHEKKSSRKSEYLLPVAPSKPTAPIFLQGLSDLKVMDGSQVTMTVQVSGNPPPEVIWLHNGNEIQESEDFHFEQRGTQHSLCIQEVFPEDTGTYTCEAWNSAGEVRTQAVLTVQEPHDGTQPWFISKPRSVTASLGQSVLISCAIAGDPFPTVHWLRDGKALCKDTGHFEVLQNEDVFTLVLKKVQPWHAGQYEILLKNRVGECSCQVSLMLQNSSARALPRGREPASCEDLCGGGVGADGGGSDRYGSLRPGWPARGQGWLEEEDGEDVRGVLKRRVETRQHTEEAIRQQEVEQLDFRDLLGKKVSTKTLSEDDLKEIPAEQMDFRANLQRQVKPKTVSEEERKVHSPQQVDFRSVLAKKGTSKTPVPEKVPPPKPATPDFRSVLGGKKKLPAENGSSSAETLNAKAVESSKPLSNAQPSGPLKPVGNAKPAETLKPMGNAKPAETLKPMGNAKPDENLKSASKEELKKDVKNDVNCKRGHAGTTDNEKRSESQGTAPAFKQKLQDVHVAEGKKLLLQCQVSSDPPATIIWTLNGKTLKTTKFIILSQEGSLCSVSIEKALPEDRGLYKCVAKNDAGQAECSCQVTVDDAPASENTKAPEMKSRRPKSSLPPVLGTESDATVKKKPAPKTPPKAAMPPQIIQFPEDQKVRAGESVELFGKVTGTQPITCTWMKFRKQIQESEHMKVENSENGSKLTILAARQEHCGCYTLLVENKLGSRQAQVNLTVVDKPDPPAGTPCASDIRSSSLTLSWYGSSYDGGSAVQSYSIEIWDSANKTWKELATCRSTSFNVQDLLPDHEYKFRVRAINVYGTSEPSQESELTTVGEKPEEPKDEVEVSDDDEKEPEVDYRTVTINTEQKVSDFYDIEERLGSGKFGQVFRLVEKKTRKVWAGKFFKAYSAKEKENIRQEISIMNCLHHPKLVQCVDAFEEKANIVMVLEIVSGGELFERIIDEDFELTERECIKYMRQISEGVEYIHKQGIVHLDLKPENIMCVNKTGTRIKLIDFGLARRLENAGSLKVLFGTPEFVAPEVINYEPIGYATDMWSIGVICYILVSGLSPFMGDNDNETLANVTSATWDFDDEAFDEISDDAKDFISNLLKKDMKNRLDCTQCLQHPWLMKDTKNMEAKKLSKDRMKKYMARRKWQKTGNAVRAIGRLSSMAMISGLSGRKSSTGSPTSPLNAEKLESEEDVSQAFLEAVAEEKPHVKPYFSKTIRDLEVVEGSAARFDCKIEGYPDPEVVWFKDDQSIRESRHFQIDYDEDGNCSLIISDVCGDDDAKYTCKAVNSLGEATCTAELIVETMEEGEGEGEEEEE
Chain of CAMK2D (human) (Q13557 whole entry, looked up): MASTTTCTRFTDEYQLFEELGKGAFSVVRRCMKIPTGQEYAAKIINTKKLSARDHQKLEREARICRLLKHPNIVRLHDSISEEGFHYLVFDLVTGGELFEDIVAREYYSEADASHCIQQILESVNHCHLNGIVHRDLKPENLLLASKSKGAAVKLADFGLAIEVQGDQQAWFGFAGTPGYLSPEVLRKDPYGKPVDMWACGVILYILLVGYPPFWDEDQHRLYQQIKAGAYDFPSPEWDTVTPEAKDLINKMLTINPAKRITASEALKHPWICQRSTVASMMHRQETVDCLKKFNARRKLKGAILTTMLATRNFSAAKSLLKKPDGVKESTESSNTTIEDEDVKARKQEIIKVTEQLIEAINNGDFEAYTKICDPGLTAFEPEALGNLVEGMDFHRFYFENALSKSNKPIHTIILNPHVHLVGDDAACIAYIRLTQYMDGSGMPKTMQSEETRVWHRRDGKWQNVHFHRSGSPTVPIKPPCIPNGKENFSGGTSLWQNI
Chain of NEK6 (human) (Q9HC98 whole entry, looked up): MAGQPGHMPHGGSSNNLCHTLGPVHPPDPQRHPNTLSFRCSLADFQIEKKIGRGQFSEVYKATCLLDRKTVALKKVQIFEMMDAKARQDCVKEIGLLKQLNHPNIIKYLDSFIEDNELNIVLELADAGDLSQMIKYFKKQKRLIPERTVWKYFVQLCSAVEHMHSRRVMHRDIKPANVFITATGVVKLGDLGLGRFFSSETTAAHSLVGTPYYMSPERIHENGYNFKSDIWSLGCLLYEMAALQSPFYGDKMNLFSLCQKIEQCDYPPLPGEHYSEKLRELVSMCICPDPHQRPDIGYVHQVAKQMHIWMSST

residual activity [1]: 44.3% | residual activity [2]: 4.93% | residual activity [3]: 8.85% | residual activity [4]: 96.3% | residual activity [5]: 65.2% | residual activity [6]: 36.6% | residual activity [7]: 96.6% | residual activity [8]: 23% | residual activity [9]: 27.7% | residual activity [10]: 81.7% | residual activity [11]: 101% | residual activity [12]: 34.7% | residual activity [13]: 102% | residual activity [14]: 32.3% | residual activity [15]: 11.6% | residual activity [16]: 13.1% | residual activity [17]: 49.9% | residual activity [18]: 13% | residual activity [19]: 35% | residual activity [20]: 69% | residual activity [21]: 47.8% | residual activity [22]: 67% | residual activity [23]: 92% | residual activity [24]: 199% | residual activity [25]: 45.1% and 53% | residual activity [26]: 29.1% | residual activity [27]: 88% | residual activity [28]: 85.2% | residual activity [29]: 16.4% | residual activity [30]: 96.4% | residual activity [31]: 103% | residual activity [32]: 39.1% | residual activity [33]: 85.4% | residual activity [34]: 108% | residual activity [35]: 101% | residual activity [36]: 42.8% | residual activity [37]: 11.6% | residual activity [38]: 101% | residual activity [39]: 7.06% | residual activity [40]: 29.7% | residual activity [41]: 49.4% | residual activity [42]: 101%
SMILES: O=C1Nc2ccccc2/C1=C1/Nc2ccccc2/C1=N\OCCC(O)CO (stereo not drawn)

SMILES: O=C1NC(=O)C(c2c[nH]c3ccccc23)=C1c1c[nH]c2ccccc12
residual activity [1]: 95.4% | residual activity [2]: 94.9% | residual activity [3]: 57.6% | residual activity [4]: 101% | residual activity [5]: 91.5% | residual activity [6]: 111% | residual activity [7]: 93.4% | residual activity [8]: 96% | residual activity [9]: 88.7% | residual activity [10]: 99.8% | residual activity [11]: 91.1% | residual activity [12]: 85.1% | residual activity [13]: 92.9% | residual activity [14]: 74.4% | residual activity [15]: 88.5% | residual activity [16]: 82% | residual activity [17]: 84.6% | residual activity [18]: 101% | residual activity [19]: 101% | residual activity [20]: 95.1% | residual activity [21]: 75.6% | residual activity [22]: 93.1% | residual activity [23]: 46.7% | residual activity [24]: 97.1% | residual activity [25]: 76.8% and 82.4% | residual activity [26]: 65% | residual activity [27]: 42.9% | residual activity [28]: 92% | residual activity [29]: 19.2% | residual activity [30]: 97.4% | residual activity [31]: 110% | residual activity [32]: 93.7% | residual activity [33]: 92.7% | residual activity [34]: 109% | residual activity [35]: 145% | residual activity [36]: 95.6% | residual activity [37]: 58.5% | residual activity [38]: 103% | residual activity [39]: 55.4% | residual activity [40]: 85.1% | residual activity [41]: 86.1% | residual activity [42]: 27.7%

SMILES: Oc1ccc(Nc2nc(-c3ccc(Cl)cc3)cs2)cc1
residual activity [1]: 98.3% | residual activity [2]: 103% | residual activity [3]: 97.7% | residual activity [4]: 95.2% | residual activity [5]: 99% | residual activity [6]: 104% | residual activity [7]: 104% | residual activity [8]: 96.1% | residual activity [9]: 101% | residual activity [10]: 103% | residual activity [11]: 95.6% | residual activity [12]: 104% | residual activity [13]: 101% | residual activity [14]: 104% | residual activity [15]: 96.4% | residual activity [16]: 100% | residual activity [17]: 99.5% | residual activity [18]: 102% | residual activity [19]: 99.4% | residual activity [20]: 110% | residual activity [21]: 104% | residual activity [22]: 99.4% | residual activity [23]: 102% | residual activity [24]: 94.9% | residual activity [25]: 94.1% and 98.5% | residual activity [26]: 98.8% | residual activity [27]: 94.7% | residual activity [28]: 91.8% | residual activity [29]: 117% | residual activity [30]: 108% | residual activity [31]: 101% | residual activity [32]: 100% | residual activity [33]: 101% | residual activity [34]: 101% | residual activity [35]: 120% | residual activity [36]: 107% | residual activity [37]: 88.9% | residual activity [38]: 101% | residual activity [39]: 80.9% | residual activity [40]: 99.8% | residual activity [41]: 97.1% | residual activity [42]: 113%

SMILES: COc1cc2ncc(-c3ccccc3)nc2cc1OC
residual activity [1]: 93.1% | residual activity [2]: 93.2% | residual activity [3]: 88.4% | residual activity [4]: 93.8% | residual activity [5]: 83.8% | residual activity [6]: 102% | residual activity [7]: 113% | residual activity [8]: 96.9% | residual activity [9]: 94.1% | residual activity [10]: 105% | residual activity [11]: 101% | residual activity [12]: 97.9% | residual activity [13]: 113% | residual activity [14]: 97.4% | residual activity [15]: 85.4% | residual activity [16]: 88.9% | residual activity [17]: 104% | residual activity [18]: 100% | residual activity [19]: 100% | residual activity [20]: 86.8% | residual activity [21]: 89% | residual activity [22]: 94.7% | residual activity [23]: 87.4% | residual activity [24]: 99.3% | residual activity [25]: 77.1% and 96.2% | residual activity [26]: 87.5% | residual activity [27]: 88.8% | residual activity [28]: 84% | residual activity [29]: 98.5% | residual activity [30]: 103% | residual activity [31]: 90.3% | residual activity [32]: 103% | residual activity [33]: 104% | residual activity [34]: 86.4% | residual activity [35]: 164% | residual activity [36]: 87.5% | residual activity [37]: 62.1% | residual activity [38]: 89.3% | residual activity [39]: 85.4% | residual activity [40]: 93.5% | residual activity [41]: 80% | residual activity [42]: 103%
